Like-named read-outs stand apart in the source and are kept apart here.
Tests used:
[1] = target: T1, hSTINGmut (Homo sapiens, UniProt Q86WV6, G230I/H232R/Q266I/S162A); experiment: DMXAA mediated expression of STING-derived cytokines (qPCR); assay type: cell-based; details: hSTINGmut-transduced MC38 and Hep2G cells; 50 μg/mL DMXAA, 3 h or 6 h
T1 construct: expressed in transfected cells
Method: (§1) As a readout, the expression of STING-derived cytokines was measured by qPCR.
(§2) To this end, MC38 and Hep2G cells have been transduced with lentiviruses encoding luciferase, hSTINGwt, hSTINGmut to obtain stable cell lines as described above or were not transduced with any lentivirus (no vector). Respective cells were seeded in 24-well plates at a density of 750 cells/mm^2 in growth medium. […] Cells were harvested and prepared for qPCR measurements as described above. The expression of the cytokines IFN-β, TNF-α, IL-6, CXCL9 and CXCL10 were measured for either experimental group and expression levels relative to controls (no vector) were quantified.

[2] = target: T2, hSTINGwt (Homo sapiens, UniProt Q86WV6, H232R); experiment: as above; assay type: cell-based; details: other groups (luciferase, hSTINGwt, no vector); 50 μg/mL DMXAA
T2 construct: expressed in transfected cells
Method: as §1, §2

[3] = target: T1, hSTINGmut; experiment: Time-course expression of STING-derived cytokines upon DMXAA treatment; assay type: cell-based; details: MC38 and Hep2G cells encoding hSTINGmut; 50 μg/mL DMXAA; any given timepoint
Method: The objective of this experiment was to examine the time-course of STING-derived cytokine expression upon DMXAA treatment. As a readout, the expression of STING-derived cytokines was measured by qPCR.
To this end, stable cell lines of MC38 and Hep2G cells encoding hSTINGmut have been obtained as described above. […] Cells were harvested and prepared for qPCR measurements as described above.

[4] = system: STING
Method: C57 wild type mice, aged 6 to 10 weeks, were injected intravenously with an AAV8 vector encoding either hSTINGmut (AAV8-hSTINGmut, 1×10^11 viral genomes) or as a control GFP (AAV8-GFP, 1.5×10^11 viral genomes).

[5] = system: MC38 cells; experiment: Synergism proof of principle I, IFN-β mRNA; assay type: cell-based, murine
Method: To this end, MC38 cells received 8 Gy or 0 Gy as described above (example 7). Cells were seeded thereafter at 750 cells/mm^2 density and were then either mock-transduced or transduced with AAV8-hSTINGmut (1×10^5 viral genomes/cell). For cell transduction 8.5×10^9 viral genomes of AAV8-hSTINGmut from known concentration stock solutions, were resuspended in 50 μl RPMI 2% FBS. The resuspended viral particles were then added to the wells where the cells were seeded.

[6] = system: MC38 cells; experiment: Synergism proof of principle II, IL-12 mRNA; assay type: cell-based, murine; details: cells transduced with AAV8-hSTINGmut plus AAV8-ISREx4-IL12miR122T
Method: […] The resuspended viral particles were then added to the wells where the cells were seeded. […] The IL-12 mRNA was determined by qPCR as described above (example 3) and expression levels were quantified in reference to non-transduced, non-irradiated cells treated with vehicle.

[7] = system: HEK293 cells; experiment: Synergism proof of principle III, IFN-β and IL-12 mRNA; assay type: cell-based, human; details: for IFN-β expression levels: hSTINGmut expressing HEK293 cells
Method: The IFN-β and the IL-12 mRNA expression levels were determined by qPCR as described above (example 1) and expression levels were quantified in reference to the indicated controls.

[8] = system: native non-transduced MC38 cells; experiment: Synergism proof of principle IV, IFN-β protein; assay type: cell-based, murine
Excerpt: To this end, native non-transduced MC38 cells received 0 Gy, 2 Gy or 8 Gy as described above.

[9] = system: MC38 tumors; experiment: Synergism of DMXAA and radiotherapy in a humanized mouse model in vivo, cytokine levels; set-up: species or system STING KO mice; details: tumor extracts 6 h after DMXAA 20 mg/kg; irradiated
[10] = human, in vivo; cited from earlier work
[11] = target: human STING (Homo sapiens, UniProt Q86WV6, H232R); details: cited from earlier work
[12] = target: hSTING[R]-S162A/G230I/Q266I (Homo sapiens, UniProt Q86WV6, G230I/H232R/Q266I/S162A); details: cited from earlier work
[13] = system: established tumors; details: intratumor injections; STING-dependent; cited from earlier work
[14] = 5 or 10 mg DMXAA/kg, AAV8-hSTINGmut transduced mice

T1 sequence (Q86WV6 whole entry S162A/G230I/H232R/Q266I): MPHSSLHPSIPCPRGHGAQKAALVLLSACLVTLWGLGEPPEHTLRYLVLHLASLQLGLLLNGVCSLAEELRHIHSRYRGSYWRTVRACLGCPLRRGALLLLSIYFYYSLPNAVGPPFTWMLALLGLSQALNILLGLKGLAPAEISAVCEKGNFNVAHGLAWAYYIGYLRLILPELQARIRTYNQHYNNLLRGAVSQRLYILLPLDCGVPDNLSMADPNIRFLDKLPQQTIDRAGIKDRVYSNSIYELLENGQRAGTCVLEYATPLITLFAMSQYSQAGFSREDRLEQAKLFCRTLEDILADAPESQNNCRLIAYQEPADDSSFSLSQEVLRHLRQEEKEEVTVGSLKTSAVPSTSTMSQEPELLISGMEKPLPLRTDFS
human STING, sequence (Q86WV6 whole entry H232R): as the sequence (Q86WV6 whole entry S162A/G230I/H232R/Q266I) above, with A162S, I230G, I266Q counted along it
T2 sequence (Q86WV6 whole entry H232R): as the sequence (Q86WV6 whole entry S162A/G230I/H232R/Q266I) above, with A162S, I230G, I266Q counted along it
hSTING[R]-S162A/G230I/Q266I, sequence (Q86WV6 whole entry S162A/G230I/H232R/Q266I): as the sequence (Q86WV6 whole entry S162A/G230I/H232R/Q266I) above

Q: Which results are given for `Cc1ccc2c(=O)c3cccc(CC(=O)O)c3oc2c1C` [DMXAA, 5,6-Dimethylxanthenone-4-acetic acid]?
A: expression of cytokines IFN-β, TNF-α, IL-6, CXCL9 and CXCL10 [1]: elevated; expression of cytokines IFN-β, TNF-α, IL-6, CXCL9 and CXCL10 [2]: no significant alteration; time-course of STING-derived cytokine expression [3]: increase in expression levels; IFN-β levels in serum ([4]; 20 mg DMXAA/kg i.p., AAV8-GFP transduced control animals, 3 h after injection): elevation of IFN-β levels; toxicity and mortality ([4]; 20 mg DMXAA/kg repeated, AAV8-GFP and AAV8-hSTINGmut mice (systemic STING stimulation)): high toxicity and mortality; IFN-β levels in serum [4, 14]: only very low levels; toxicity and mortality [4, 14]: neither cause significant toxicity nor mortality; IFN-β mRNA expression ([5]; hSTINGmut-transduced MC38, 8 Gy, DMXAA 50 μg/mL 6 h): further increased; IFN-β mRNA expression ([5]; hSTINGmut-transduced MC38, no irradiation, DMXAA): intermediate expression; IFN-β mRNA expression ([5]; non-transduced MC38, 8 Gy, DMXAA 50 μg/mL 6 h): increase in IFN-β expression; IL-12 mRNA levels ([6]; irradiated with 8 Gy): strong elevation; IL-12 mRNA levels ([6]; non-irradiated): slight elevation; IL-12 expression levels ([7]; HEK293 cells expressing ISREx4-IL12miR122T, radiation and further DMXAA treatment): significant increase in IL-12 expression levels; IFN-β expression levels ([7]; DMXAA 50 μg/mL): upregulated; IFN-β expression levels ([7]; DMXAA plus additional irradiation 8 Gy): significantly increased; IFN-β production (ELISA) ([8]; 8 Gy plus DMXAA at different doses, 24 h or 48 h): exceeding the sum of those obtained with radiation alone and DMXAA alone; IFN-β production (ELISA) ([8]; single dose 8 Gy, DMXAA 50 μg/mL 24 h later, collected after another 24 h): enhanced; intratumor levels of IL-12 [9]: increased significantly; efficacy in clinical trials [10]: lack of efficacy; tolerability in clinical trials [10]: well tolerated and only displayed minor side effects; activation of human STING [11]: unable to activate; activation of hSTING[R]-S162A/G230I/Q266I [12]: highly activated; CD8+ T cell priming and tumor elimination [13]: effectively prime CD8+ T cell responses and promote elimination of the established tumors
